Patent US20070155827A1, “USE OF BENZO-FUSED HETEROCYCLE SULFAMIDE DERIVATIVES FOR THE TREATMENT OF DEPRESSION” (priority 2005, published 2007)

Tested on: Male Sprague Dawley rats
Assay: Forced Swim Test (Acute), FST
Assay type: in vivo
Conditions: p.o.
Protocol: The Forced Swim test (FST) is a commonly used procedure to screen compounds for possible antidepressant properties. This test is also known as the behavioral despair test. Rodents placed in […] tanks filled with water present a wide variety of escape or immobility behaviors. Antidepressant drugs from different classes markedly increase escape behaviors and/or decrease latency or duration of immobility.
Venlafaxine and desipramine were dissolved in water. All drugs and their vehicles were administered orally (p.o.) by gavage in a volume of 5 mL/kg.
Male Sprague Dawley rats (140 to 160 g) from Charles River Laboratories Wilmington, Mass. were used. The animals went through a five-day quarantine period before being subjected to the experimental procedure.
Animals were housed in groups of four in plastic cages at an ambient temperature of 21° C. to 23° C. with an automated 12 hour light/dark cycle and access to water and commercial rodent food ad libitum. Animals were not handled more than for the routine bedding change prior to pre-test swim session.
Each experiment consisted of seven treatment groups with n=4 animals per group. A total of 28 animals per experiment were used. Two consecutive experiments (1 and 2, 3 and 4, and 5 and 6) were exact replicas of each other. […] One treatment group of n=4 animals in each experiment was a vehicle treated group. […] In experiments 5 and 6 the effects of venlafaxine and maprotyline at 12 mg/kg, 30 mg/kg, and 60 mg/kg were tested.
The basic apparatus consisted of a cylinder (46 cm tall×˜20 cm diameter) filled with water to 30 cm deep, at a temperature of 25±1° C. The automated version of the FST was used to perform the experiments. Plumbing for automatic filling and emptying water connected the four cylinders. Cylinders were placed in the dividing chambers 25 cm wide to separate animals visually. Each 5-minute experimental session was videotaped and analyzed in real time by computer software (Clever Systems, Inc.) for four animals at a time. The immobility, swimming, climbing and escape times were recorded by the software. The four activities are defined as follow. Immobility: the animal floats motionlessly or makes only those movements necessary to keep its head above water; Climb: the animal vigorously moves vertically while scratching the wall around the cylinder; Swim: the animal moves horizontally around in the cylinder more than necessary to keep its head above water; and Escape: sum of all vigorous active movements.
The ability of a test compound to decrease the duration or frequency of immobility, or changes in swimming, climbing and escape times, was measured using the FST procedure described above. […] The analysis of the results in the studies described was focused on the immobility time during 5-minute test session.
There were two swim sessions in each experiment. First, a pre-test swim session for 15 minutes was performed. Following 48 hours later was a test session of 5-minute duration. Upon completion of a swim session, each animal was placed under a heat lamp in a cage with soft bedding for approximately 15 minutes to prevent hypothermia.
Animals were pre-treated with a vehicle or test compound after completing the pre-test swim session, then 24 hours later and then shortly prior to the 5-minute test session; i.e., three injections were given to each animal between the two swim sessions that occurred on 3 consecutive days.
Data were analyzed using GraphPad Prism software (GraphPad Software, Inc. San Diego, Calif.). For the comparison of the effect of different doses for various drugs on immobility in the FST one-way ANOVA was used followed by Dunnett's multiple comparison test. […] The ED50 and Emax values were statistically compared using two-tail t-test.

## NS(=O)(=O)NC[C@H]1COc2cc(Cl)ccc2O1 [Compound #8, (2S)-(−)-N-(6-Chloro-2,3-dihydro-benzo[1,4]dioxin-2-ylmethyl)-sulfamide]
Rattus norvegicus, po, 5 min, three administrations, 5-minute test session, read-out: ED50 (immobility)
  ED50: 5.6 ± 0.6 mg/kg
5-minute testing session
  effect in the FST (immobility time): antidepressant-like activity in the FST
immobility
  Emax (immobility): 67.0 ± 11.6 s
